pIC50: −log10 of the molar value.
Biological target: PHGDH (Homo sapiens (Human), UniProt O43175)
Test: 3-Phosphoglycerate Dehydrogenase (PHGDH) Fluorescence Intensity Assay, run at two NAD/3-PG ratios: PHGDH_HIGH_NAD/3-PG (250 μM NAD/500 μM 3-PG) and PHGDH_500_NAD/3-PG (500 μM NAD/500 μM 3-PG)
Assay type: biochemical
Conditions: 250 μM NAD/500 μM 3-PG; read-out: IC50 (PHGDH_HIGH_NAD/3-PG)
From the text: This assay is used to identify compounds which inhibit the enzymatic activity of PHGDH which catalyzes the reaction of 3-Phosphoglycerate (3-PG) and NAD to 3-Phosphohydroxypyruvate and NADH.
The produced NADH is used in a coupled reaction for Diaphorase mediated reduction of Resazurin to Resorufin which can be measured in a Fluorescence Intensity readout.
The full length version of PHGDH enzyme was expressed in E. coli with an N-terminal HIS-tag and a TEV cleavage site.
The 3-Phosphoglycerate substrate was purchased from Sigma. NAD, Diaphorase and Resazurin were purchased from Sigma Aldrich.
Compounds are dispensed onto assay plates (black, low volume, flat bottom 384 well, Corning) using an Access Labcyte Workstation with the Labcyte Echo 55× from a DMSO solution. For the chosen highest assay concentration of 100 μM, 150 nl of compound solution are transferred from a 10 mM DMSO compound stock solution. A series of 11 concentrations (10 1:5 steps) is transferred for each compound.
The assay has been performed at two different NAD/3-PG ratios (final assay concentrations):
Plates are kept at room temperature. After 240 minutes incubation time the fluorescence signal is measured in a PerkinElmer Envision HTS Multilabel Reader with an excitation wavelength at 530-560 nm and an emission wavelength at 590 nm.
Each plate contains negative controls (diluted DMSO instead of test compound; reaction as described with PHGDH protein) and positive controls (diluted DMSO instead of test compound; reaction as described with buffer instead of PHGDH protein). Negative and positive control values are used for normalization.
IC50 values are calculated and analyzed in the MEGALAB IC50 application using a 4 parametric logistic model.

Chain of PHGDH (O43175 2-533 limits assumed): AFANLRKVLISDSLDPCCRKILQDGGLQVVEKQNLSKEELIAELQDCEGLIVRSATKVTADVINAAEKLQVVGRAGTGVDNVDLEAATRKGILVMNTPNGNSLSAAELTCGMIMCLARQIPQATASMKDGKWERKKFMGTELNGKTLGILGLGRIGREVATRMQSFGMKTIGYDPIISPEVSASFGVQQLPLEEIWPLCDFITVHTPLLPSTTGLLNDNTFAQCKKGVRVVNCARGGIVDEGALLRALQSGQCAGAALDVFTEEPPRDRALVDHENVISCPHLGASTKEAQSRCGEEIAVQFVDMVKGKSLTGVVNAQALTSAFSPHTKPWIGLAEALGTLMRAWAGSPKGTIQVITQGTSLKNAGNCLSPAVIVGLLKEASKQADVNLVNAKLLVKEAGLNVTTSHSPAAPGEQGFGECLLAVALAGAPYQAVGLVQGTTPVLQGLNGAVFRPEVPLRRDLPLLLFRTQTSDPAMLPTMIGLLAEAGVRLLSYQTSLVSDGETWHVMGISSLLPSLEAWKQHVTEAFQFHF

SMILES	pIC50
Cc1cc(Cl)c2cc(C(=O)N[C@H](C)c3ccc(S(=O)(=O)C4(C(=O)O)CC4)cc3)n(C)c2c1 [Example 07-013, 1-{4-[(1R)-1-[(4-chloro-1,6-dimethyl-1H-indol-2-yl)formamido]ethyl]benzenesulfonyl}cyclopropane-1-carboxylic acid]	8.00
Cc1cc2c(cc(C(=O)N[C@H](CO)c3ccc(S(=O)(=O)C(C)(C)C(=O)O)cc3)n2C)c(Cl)c1Cl [Example 07-014, 2-{4-[(1S)-1-[(4,5-dichloro-1,6-dimethyl-1H-indol-2-yl)formamido]-2-hydroxyethyl]benzenesulfonyl}-2-methylpropanoic acid]	8.40
Cc1cc2c(cc(C(=O)N[C@H](C)c3ccc(S(=O)(=O)C(C)(C)C(=O)O)cc3)n2C)c(Cl)c1Cl [Example 07-015, 2-{4-[(1R)-1-[(4,5-dichloro-1,6-dimethyl-1H-indol-2-yl)formamido]ethyl]benzenesulfonyl}-2-methylpropanoic acid]	8.30
C[C@@H](NC(=O)c1cc(-c2ccc(F)cc2)nn1C)c1ccc(S(=O)(=O)C(C)(C)C(=O)O)cc1 [Example 08-001, 2-{4-[(1R)-1-{[3-(4-fluorophenyl)-1-methyl-1H-pyrazol-5-yl]formamido}ethyl]benzenesulfonyl}-2-methylpropanoic acid]	6.79
C[C@@H](NC(=O)c1cc(-c2ccc(F)cc2)nn1C)c1ccc(S(=O)(=O)C2(C(=O)O)CCCC2)cc1 [Example 08-002, 1-{4-[(1R)-1-{[3-(4-fluorophenyl)-1-methyl-1H-pyrazol-5-yl]formamido}ethyl]benzenesulfonyl}cyclopentane-1-carboxylic acid]	7.13
C[C@@H](NC(=O)c1cc(-c2ccc(F)cc2)nn1C)c1ccc(S(=O)(=O)C2(C(=O)O)CCOCC2)cc1 [Example 08-003, 4-{4-[(1R)-1-{[3-(4-fluorophenyl)-1-methyl-1H-pyrazol-5-yl]formamido}ethyl]benzenesulfonyl}oxane-4-carboxylic acid]	6.86
COCCOC(=O)CS(=O)(=O)c1ccc([C@@H](C)NC(=O)c2cc3cc(C(F)(F)F)ccc3n2C)cc1 [Example 09-008, 2-methoxyethyl 2-{4-[(1R)-1-{[1-methyl-5-(trifluoromethyl)-1H-indol-2-yl]formamido}ethyl]benzenesulfonyl}acetate]	5.46
CCCCOC(=O)CS(=O)(=O)c1ccc([C@@H](C)NC(=O)c2cc3c(Cl)cc(C)cc3n2C)cc1 [Example 09-009, butyl 2-{4-[(1R)-1-[(4-chloro-1,6-dimethyl-1H-indol-2-yl)formamido]ethyl]benzenesulfonyl}acetate]	5.43
Cc1cc(Cl)c2cc(C(=O)N[C@H](C)c3ccc(S(=O)(=O)CC(=O)OCc4ccncc4)cc3)n(C)c2c1 [Example 09-010, pyridin-4-ylmethyl 2-{4-[(1R)-1-[(4-chloro-1,6-dimethyl-1H-indol-2-yl)formamido]ethyl]benzenesulfonyl}acetate]	6.76
Cc1cc(Cl)c2cc(C(=O)N[C@H](C)c3ccc(S(=O)(=O)CC(=O)OCC(COC(=O)C(C)(C)C)COC(=O)C(C)(C)C)cc3)n(C)c2c1 [Example 09-015, 2-{[(2-{4-[(1R)-1-[(4-chloro-1,6-dimethyl-1H-indol-2-yl)formamido]ethyl]benzenesulfonyl}acetyl)oxy]methyl}-3-[(2,2-dimethylpropanoyl)oxy]propyl 2,2-dimethylpropanoate]	5.04
Cc1cc(Cl)c2cc(C(=O)N[C@H](C)c3ccc(S(=O)(=O)CC(=O)OCC4CC4)cc3)n(C)c2c1 [Example 09-016, cyclopropylmethyl 2-{4-[(1R)-1-[(4-chloro-1,6-dimethyl-1H-indol-2-yl)formamido]ethyl]benzenesulfonyl}acetate]	5.68
Cc1cc(Cl)c2cc(C(=O)N[C@H](C)c3ccc(S(=O)(=O)CC(=O)OCC4COC4)cc3)n(C)c2c1 [Example 09-017, oxetan-3-ylmethyl 2-{4-[(1R)-1-[(4-chloro-1,6-dimethyl-1H-indol-2-yl)formamido]ethyl]benzenesulfonyl}acetate]	6.75
Cc1cc(Cl)c2cc(C(=O)N[C@H](C)c3ccc(S(=O)(=O)CC(=O)O[C@H]4CCOC4)cc3)n(C)c2c1 [Example 09-018, (3S)-oxolan-3-yl 2-{4-[(1R)-1-[(4-chloro-1,6-dimethyl-1H-indol-2-yl)formamido]ethyl]benzenesulfonyl}acetate]	6.38
Cc1cc(Cl)c2cc(C(=O)N[C@H](C)c3ccc(S(=O)(=O)CC(=O)O[C@@H]4CCOC4)cc3)n(C)c2c1 [Example 09-019, (3R)-oxolan-3-yl 2-{4-[(1R)-1-[(4-chloro-1,6-dimethyl-1H-indol-2-yl)formamido]ethyl]benzenesulfonyl}acetate]	6.60
COC(C)(C)COC(=O)CS(=O)(=O)c1ccc([C@@H](C)NC(=O)c2cc3c(Cl)cc(C)cc3n2C)cc1 [Example 09-021, 2-methoxy-2-methylpropyl 2-{4-[(1R)-1-[(4-chloro-1,6-dimethyl-1H-indol-2-yl)formamido]ethyl]benzenesulfonyl}acetate]	6.24
CC(=O)OCC(COC(C)=O)COC(=O)CS(=O)(=O)c1ccc([C@@H](C)NC(=O)c2cc3c(Cl)cc(C)cc3n2C)cc1 [Example 09-022, 3-(acetyloxy)-2-[(acetyloxy)methyl]propyl 2-{4-[(1R)-1-[(4-chloro-1,6-dimethyl-1H-indol-2-yl)formamido]ethyl]benzenesulfonyl}acetate]	6.37
Cc1cc(Cl)c2cc(C(=O)N[C@H](C)c3ccc(S(=O)(=O)CC(=O)OCCOC(=O)C(C)(C)C)cc3)n(C)c2c1 [Example 09-023, 2-[(2-{4-[(1R)-1-[(4-chloro-1,6-dimethyl-1H-indol-2-yl)formamido]ethyl]benzenesulfonyl}acetyl)oxy]ethyl 2,2-dimethylpropanoate]	5.74
CC(=O)OCC(CO)COC(=O)CS(=O)(=O)c1ccc([C@@H](C)NC(=O)c2cc3c(Cl)cc(C)cc3n2C)cc1 (stereo partly drawn) [Example 09-024, 2-[(acetyloxy)methyl]-3-hydroxypropyl 2-{4-[(1R)-1-[(4-chloro-1,6-dimethyl-1H-indol-2-yl)formamido]ethyl]benzenesulfonyl}acetate]	6.61
Cc1cc(Cl)c2cc(C(=O)N[C@H](C)c3ccc(S(=O)(=O)CC(=O)OC4COC4)cc3)n(C)c2c1 [Example 09-025, oxetan-3-yl 2-{4-[(1R)-1-[(4-chloro-1,6-dimethyl-1H-indol-2-yl)formamido]ethyl]benzenesulfonyl}acetate]	7.14
Cc1cc(Cl)c2cc(C(=O)N[C@H](C)c3ccc(S(=O)(=O)CC(=O)OCC(CO)COC(=O)C(C)(C)C)cc3)n(C)c2c1 (stereo partly drawn) [Example 09-026, 2-{[(2-{4-[(1R)-1-[(4-chloro-1,6-dimethyl-1H-indol-2-yl)formamido]ethyl]benzenesulfonyl}acetyl)oxy]methyl}-3-hydroxypropyl 2,2-dimethylpropanoate]	5.85

Same assay, conditions: 500 μM NAD/500 μM 3-PG; read-out: IC50 (PHGDH_500_NAD/3-PG)

SMILES	pIC50
Cc1cc(Cl)c2cc(C(=O)N[C@H](C)c3ccc(S(=O)(=O)C4(C(=O)O)CC4)cc3)n(C)c2c1 [Example 07-013, 1-{4-[(1R)-1-[(4-chloro-1,6-dimethyl-1H-indol-2-yl)formamido]ethyl]benzenesulfonyl}cyclopropane-1-carboxylic acid]	7.82
Cc1cc2c(cc(C(=O)N[C@H](CO)c3ccc(S(=O)(=O)C(C)(C)C(=O)O)cc3)n2C)c(Cl)c1Cl [Example 07-014, 2-{4-[(1S)-1-[(4,5-dichloro-1,6-dimethyl-1H-indol-2-yl)formamido]-2-hydroxyethyl]benzenesulfonyl}-2-methylpropanoic acid]	8.22
Cc1cc2c(cc(C(=O)N[C@H](C)c3ccc(S(=O)(=O)C(C)(C)C(=O)O)cc3)n2C)c(Cl)c1Cl [Example 07-015, 2-{4-[(1R)-1-[(4,5-dichloro-1,6-dimethyl-1H-indol-2-yl)formamido]ethyl]benzenesulfonyl}-2-methylpropanoic acid]	8.05
CC(=O)N1CCC(C(=O)O)(S(=O)(=O)c2ccc([C@@H](C)NC(=O)c3cc4c(Cl)c(Cl)c(C)cc4n3C)cc2)CC1 [Example 07-016, 1-acetyl-4-{4-[(1R)-1-[(4,5-dichloro-1,6-dimethyl-1H-indol-2-yl)formamido]ethyl]benzenesulfonyl}piperidine-4-carboxylic acid]	7.68
C[C@@H](NC(=O)c1cc(-c2ccc(F)cc2)nn1C)c1ccc(S(=O)(=O)C2(C(=O)O)CCCC2)cc1 [Example 08-002, 1-{4-[(1R)-1-{[3-(4-fluorophenyl)-1-methyl-1H-pyrazol-5-yl]formamido}ethyl]benzenesulfonyl}cyclopentane-1-carboxylic acid]	7.02

— US11304929B2, “Tosylacetate based compounds and derivatives thereof as PHGDH inhibitors” (priority 2017, dated 2022)
